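Results reflect a 48-hour exposure of cells in 96-well plates to compound at five concentrations. GI50 is the concentration that inhibits growth by half. TGI: concentration producing complete growth inhibition.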
Legend:
Assay in all cases: inhibition of tumour cell growth, NCI panel, 48 h
[1] = system: 786-0 renal
[2] = system: A498 renal
[3] = system: A549 NSCLC
[4] = system: ACHN renal
[5] = system: BT-549 breast
[6] = system: CAKI-1 renal
[7] = system: CCRF-CEM leukemia
[8] = system: COLO 205 colon
[9] = system: DU-145 prostate
[10] = system: EKVX NSCLC
[11] = system: HCC-2998 colon
[12] = system: HCT-116 colon
[13] = system: HCT-15 colon
[14] = system: HL-60(TB) leukemia
[15] = system: HOP-62 NSCLC
[16] = system: HOP-92 NSCLC
[17] = system: HS 578T breast
[18] = system: HT29 colon
[19] = system: IGROV1 ovarian
[20] = system: K-562 leukemia
[21] = system: KM12 colon
[22] = system: LOX IMVI melanoma
[23] = system: M14 melanoma
[24] = system: MALME-3M melanoma
[25] = system: MCF7 breast
[26] = system: MDA-MB-231 breast
[27] = system: MDA-MB-435
[28] = system: MOLT-4 leukemia
[29] = system: NCI-H226 lung
[30] = system: NCI-H23 lung
[31] = system: NCI-H460 lung
[32] = system: NCI-H522 lung
[33] = system: NCI/ADR-RES ovarian
[34] = system: OVCAR-3 ovarian
[35] = system: OVCAR-4 ovarian
[36] = system: OVCAR-5 ovarian
[37] = system: OVCAR-8 ovarian
[38] = system: PC-3 prostate
[39] = system: RPMI-8226 leukemia
[40] = system: RXF 393 renal
[41] = system: SF-268 CNS
[42] = system: SF-295 CNS
[43] = system: SF-539 CNS
[44] = system: SK-MEL-2 melanoma
[45] = system: SK-MEL-28 melanoma
[46] = system: SK-MEL-5 melanoma
[47] = system: SK-OV-3 ovarian
[48] = system: SN12C renal
[49] = system: SNB-19 CNS
[50] = system: SR leukemia
[51] = system: SW-620 colon
[52] = system: T-47D breast
[53] = system: TK-10 renal
[54] = system: U251 CNS
[55] = system: UACC-257 melanoma
[56] = system: UACC-62 melanoma
[57] = system: UO-31 renal

Cc1ccccc1NC(=O)c1sc2nc(C)c(C(=O)/C=C/c3ccccc3)cc2c1N
GI50 [1]: 820 nM | TGI [1]: 1770 nM | GI50 [2]: 1230 nM | TGI [2]: 4270 nM | GI50 [3]: 1580 nM | TGI [3]: 9700 nM | GI50 [4]: 927 nM | TGI [4]: 1860 nM | GI50 [5]: 1330 nM | TGI [5]: 5280 nM | GI50 [6]: 1080 nM | TGI [6]: 2680 nM | GI50 [7]: 1500 nM | TGI [7]: > 50000 nM | GI50 [8]: 1650 nM | TGI [8]: 5270 nM | GI50 [9]: 1340 nM | TGI [9]: 4280 nM | GI50 [10]: 3860 nM | TGI [10]: 11100 nM | GI50 [11]: 913 nM | TGI [11]: 1670 nM | GI50 [12]: 896 nM | TGI [12]: 1960 nM | GI50 [13]: 836 nM | TGI [13]: 1940 nM | GI50 [14]: 922 nM | TGI [14]: 2720 nM | GI50 [15]: 1150 nM | TGI [15]: 2700 nM | GI50 [16]: 1480 nM | TGI [16]: 7260 nM | GI50 [17]: 1770 nM | TGI [17]: > 50000 nM | GI50 [18]: 1180 nM | TGI [18]: 3210 nM | GI50 [19]: 953 nM | TGI [19]: 2080 nM | GI50 [20]: 731 nM | TGI [20]: > 50000 nM | GI50 [21]: 901 nM | TGI [21]: 2020 nM | GI50 [22]: 864 nM | TGI [22]: 1620 nM | GI50 [23]: 1580 nM | TGI [23]: 6120 nM | GI50 [24]: 1430 nM | TGI [24]: 6110 nM | GI50 [25]: 1500 nM | TGI [25]: 8690 nM | GI50 [26]: 1800 nM | TGI [26]: 11000 nM | GI50 [27]: 895 nM | TGI [27]: 2330 nM | GI50 [28]: 1570 nM | TGI [28]: > 50000 nM | GI50 [29]: 1070 nM | TGI [29]: 2350 nM | GI50 [30]: 1210 nM | TGI [30]: 3160 nM | GI50 [31]: 1250 nM | TGI [31]: 3220 nM | GI50 [32]: 1150 nM | TGI [32]: 3420 nM | GI50 [33]: 1500 nM | TGI [33]: > 50000 nM | GI50 [34]: 1000 nM | TGI [34]: 2120 nM | GI50 [35]: 1420 nM | TGI [35]: > 50000 nM | GI50 [36]: 1010 nM | TGI [36]: 2620 nM | GI50 [37]: 1600 nM | TGI [37]: > 50000 nM | GI50 [38]: 1330 nM | TGI [38]: 3770 nM | GI50 [39]: 1200 nM | TGI [39]: 3480 nM | GI50 [40]: 821 nM | TGI [40]: 1600 nM | GI50 [41]: 1200 nM | TGI [41]: 3580 nM | GI50 [42]: 2430 nM | TGI [42]: 16800 nM | GI50 [43]: 977 nM | TGI [43]: 1960 nM | GI50 [44]: 1810 nM | TGI [44]: 8590 nM | GI50 [45]: 1260 nM | TGI [45]: 3720 nM | GI50 [46]: 1110 nM | TGI [46]: 2710 nM | GI50 [47]: 2500 nM | TGI [47]: 25900 nM | GI50 [48]: 1070 nM | TGI [48]: 2500 nM | GI50 [49]: 1160 nM | TGI [49]: 3580 nM | GI50 [50]: 1130 nM | TGI [50]: > 50000 nM | GI50 [51]: 1000 nM | TGI [51]: 2450 nM | GI50 [52]: 975 nM | TGI [52]: 2340 nM | GI50 [53]: 1550 nM | TGI [53]: 6040 nM | GI50 [54]: 951 nM | TGI [54]: 1990 nM | GI50 [55]: 1830 nM | TGI [55]: 8710 nM | GI50 [56]: 900 nM | TGI [56]: 2040 nM | GI50 [57]: 814 nM | TGI [57]: 1530 nM
